ChEMBL document CHEMBL4602638, “Propargylglycine-based antimicrobial compounds are targets of TolC-dependent efflux systems in Escherichia coli” (Bioorg Med Chem Lett, 2020)
In brackets after ≈: the same amount, converted by molar mass. Blank lines part the entries; values can stand above or below the compound they belong to. Activity calls are given as the source filed them. The rule behind the calls is not given here.

Experiments:
[1] = Lipophilicity, logP of compound; assay type: physicochemical; settings: octanol/water
[2] = biological target: T1, UDP-3-O-acyl-N-acetylglucosamine deacetylase (Escherichia coli K-12) (UniProt P0A725); assay: Inhibition of LpxC in Escherichia coli harboring deltaACRB mutant assessed as reduction in bacterial growth measured after 20 hrs by CLSI protocol based microbroth dilution method
T1 sequence (whole entry): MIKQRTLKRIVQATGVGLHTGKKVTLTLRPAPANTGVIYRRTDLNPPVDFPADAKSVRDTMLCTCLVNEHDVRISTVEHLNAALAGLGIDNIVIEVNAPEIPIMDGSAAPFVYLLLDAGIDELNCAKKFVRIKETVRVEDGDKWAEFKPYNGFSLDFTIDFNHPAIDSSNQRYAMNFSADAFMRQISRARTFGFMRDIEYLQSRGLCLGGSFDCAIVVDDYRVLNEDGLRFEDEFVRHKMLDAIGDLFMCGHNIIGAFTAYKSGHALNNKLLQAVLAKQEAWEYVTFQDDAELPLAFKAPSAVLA

[3] = biological target: T1, UDP-3-O-acyl-N-acetylglucosamine deacetylase (Escherichia coli K-12); assay: Inhibition of LpxC in Escherichia coli harboring deltaTolC mutant assessed as reduction in bacterial growth measured after 20 hrs by CLSI protocol based microbroth dilution method
[4] = biological target: T1, UDP-3-O-acyl-N-acetylglucosamine deacetylase (Escherichia coli K-12); assay: Inhibition of LpxC in Escherichia coli expressing deltaCdelta4LFhuA and harboring deltaTolC mutant assessed as reduction in bacterial growth measured after 20 hrs by CLSI protocol based microbroth dilution method
[5] = biological target: T1, UDP-3-O-acyl-N-acetylglucosamine deacetylase (Escherichia coli K-12); assay: Inhibition of LpxC in Escherichia coli expressing deltaCdelta4LFhuA and harboring deltaACRB mutant assessed as reduction in bacterial growth measured after 20 hrs by CLSI protocol based microbroth dilution method
[6] = biological target: T1, UDP-3-O-acyl-N-acetylglucosamine deacetylase (Escherichia coli K-12); assay: Inhibition of LpxC in Escherichia coli expressing deltaCdelta4LFhuA assessed as reduction in bacterial growth at 80 ug/ml measured after 20 hrs by CLSI protocol based microbroth dilution method
[7] = biological target: T1, UDP-3-O-acyl-N-acetylglucosamine deacetylase (Escherichia coli K-12); assay: Inhibition of LpxC in Escherichia coli assessed as reduction in bacterial growth at 80 ug/ml measured after 20 hrs by CLSI protocol based microbroth dilution method
[8] = biological target: T1, UDP-3-O-acyl-N-acetylglucosamine deacetylase (Escherichia coli K-12); assay: Inhibition of LpxC in Escherichia coli expressing deltaCdelta4LFhuA assessed as reduction in bacterial growth measured after 20 hrs by CLSI protocol based microbroth dilution method
[9] = biological target: T2, UDP-3-O-acyl-N-acetylglucosamine deacetylase (Pseudomonas aeruginosa (strain ATCC 15692 / PAO1 / 1C / PRS 101 / LMG12228)) (UniProt P47205); assay: Inhibition of LpxC in Pseudomonas aeruginosa assessed as reduction in bacterial growth measured after 20 hrs by CLSI protocol based microbroth dilution method
T2 sequence (whole entry): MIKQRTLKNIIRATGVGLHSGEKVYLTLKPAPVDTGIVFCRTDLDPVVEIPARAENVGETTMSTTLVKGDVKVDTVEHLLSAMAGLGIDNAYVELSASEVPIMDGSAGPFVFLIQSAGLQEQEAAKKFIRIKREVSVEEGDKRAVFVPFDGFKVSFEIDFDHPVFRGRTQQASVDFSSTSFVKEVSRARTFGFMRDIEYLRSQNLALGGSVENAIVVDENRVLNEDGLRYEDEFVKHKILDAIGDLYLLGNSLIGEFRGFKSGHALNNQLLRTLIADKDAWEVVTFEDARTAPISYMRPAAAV

[10] = biological target: T1, UDP-3-O-acyl-N-acetylglucosamine deacetylase (Escherichia coli K-12); assay: Inhibition of LpxC in Escherichia coli assessed as reduction in bacterial growth measured after 20 hrs by CLSI protocol based microbroth dilution method
[11] = biological target: T2, UDP-3-O-acyl-N-acetylglucosamine deacetylase (Pseudomonas aeruginosa (strain ATCC 15692 / PAO1 / 1C / PRS 101 / LMG12228)); assay: Inhibition of LpxC in Pseudomonas aeruginosa assessed as delay in bacterial growth at 25 to 50 ug/ml measured after 20 hrs by CLSI protocol based microbroth dilution method
[12] = biological target: T1, UDP-3-O-acyl-N-acetylglucosamine deacetylase (Escherichia coli K-12); assay: Inhibition of LpxC in Escherichia coli assessed as reduction in bacterial growth at 160 ug/ml measured after 20 hrs by CLSI protocol based microbroth dilution method

logP [1]: -1.69
Structure (SMILES): CC#CCOc1ccc(C(=O)N[C@@H](Cc2cn(C[C@H]3O[C@@H](n4ccc(=O)[nH]c4=O)[C@H](O)[C@@H]3O)nn2)C(=O)NO)cc1

logP [1]: 0.61
Structure (SMILES): C#CC[C@H](NC(=O)c1ccccc1)C(=O)NO

logP [1]: -0.01
Structure (SMILES): O=C(N[C@@H](Cc1cn(C[C@H]2O[C@@H](n3ccc(=O)[nH]c3=O)[C@H](O)[C@@H]2O)nn1)C(=O)NO)c1ccc(-c2ccccc2)cc1

logP [1]: 0.44
Structure (SMILES): CC#CCOc1ccc(C(=O)N[C@H](C(=O)NO)C(C)(C)N)cc1

The remaining lines, values behind:

Structure (SMILES): C#CC[C@H](NC(=O)c1ccc(-c2ccccc2)cc1)C(=O)NO
MIC [2]: 32 µg/mL (≈ 104 µM) | inhibition [2]: Dose-dependent effect | MIC [3]: 16 µg/mL (≈ 51.9 µM) | inhibition [4]: Active | logP [1]: 2.28 | inhibition [5]: Active | inhibition [6]: inactive | inhibition [7]: inactive

Structure (SMILES): N[C@@H](Cc1cn(C[C@H]2O[C@@H](n3ccc(=O)[nH]c3=O)[C@H](O)[C@@H]2O)nn1)C(=O)NO
logP [1]: -3.52

Structure (SMILES): C#CC[C@H](NC(=O)c1ccc(OCC#CC)cc1)C(=O)NO
MIC [8]: 100 µg/mL (≈ 333 µM) | MIC [9]: 100 µg/mL (≈ 333 µM) | MIC [2]: 80 µg/mL (≈ 266 µM) | MIC [10]: > 160 µg/mL | inhibition [10]: Dose-dependent effect | MIC [3]: 80 µg/mL (≈ 266 µM) | logP [1]: 1.29 | inhibition [11]: Active | inhibition [12]: inactive
